The values below come from article PMC8062632, “Structural studies of phosphorylation-dependent interactions between the V2R receptor and arrestin-2” (Nature Communications, 2021).

As a reminder, the Kd is the equilibrium constant for the complex coming apart.

This assay deals with arrestin2. The assay is described as follows: Cou-facilitated FRET assay for dissociation constant determination. In kind it is binding, bovine. Particulars: for Kd: 1 μM arrestin2 L293Cou with 1 μM Fab30, rising phosphopeptide concentrations, 25 °C, excitation 280 nm, ratio F450/F330; for reduction of affinity for arrestin2 compared with V2Rpp-FP: from FRET Kd values. On the procedure:
Steady state fluorescence was measured by a Varioskan flash (Thermo Scientific) instrument at 25 °C. […] Fluorescence intensity analysis of normalized ratio F450/F330 was calculated from relative fluorescence intensity at 450 and 330 nm. The dissociation constant was determined by fitting to the nonlinear regression equation y = Bmax [X] / (Kd + [X]) + NS[X] + Background as ours previously reported. […]
different phospho-peptide binding. a). Schematic flowchart of FRET assay for dissociation constant determination of arrestin-phospho-peptide interaction.
The synthetic fluorescent amino acid L-(7-hydroxycoumarin-4-yl) ethylglycine (Cou) was genetically incorporated into arrestin2 and served as a fluorescent acceptor for the emission light at 330 nm, and tryptophan served as the donor, which was excited at 280 nm. Cou produced its characteristic emission light at 450 nm. b). Analysis of the titration experiments monitored by FRET assay. The dissociation constant was determined by fitting to the nonlinear regression equation y = Bmax[X]/(Kd + [X]) + NS[X]+Background as previously described4. […]

Turning to `CC(C)C[C@H](NC(=O)[C@H](COP(=O)(O)O)NC(=O)[C@@H]1CCCN1C(=O)[C@@H]1CCCN1C(=O)[C@@H](NC(=O)[C@H](CCCNC(=N)N)NC(=O)CNC(=O)[C@H](CCCNC(=N)N)NC(=O)[C@H](C)N)[C@@H](C)OP(=O)(O)O)C(=O)NCC(=O)N1CCC[C@H]1C(=O)N[C@@H](CCC(N)=O)C(=O)N[C@@H](CC(=O)O)C(=O)N[C@@H](CCC(=O)O)C(=O)N[C@@H](CO)C(=O)N[C@@H](CS)C(=O)N[C@H](C(=O)N[C@H](C(=O)N[C@@H](C)C(=O)N[C@@H](COP(=O)(O)O)C(=O)N[C@@H](COP(=O)(O)O)C(=O)N[C@@H](COP(=O)(O)O)C(=O)N[C@@H](CC(C)C)C(=O)N[C@@H](C)C(=O)N[C@@H](CCCCN)C(=O)N[C@@H](CC(=O)O)C(=O)N[C@H](C(=O)N[C@@H](CO)C(=O)N[C@@H](CO)C(=O)O)[C@@H](C)O)[C@@H](C)OP(=O)(O)O)[C@@H](C)OP(=O)(O)O` [V2Rpp-3], the Kd was 3 ± 0.4 µM and the “reduction of affinity for arrestin2 compared with V2Rpp-FP” value was “approximately 3 fold”.
The matching figures for `CC(C)C[C@H](NC(=O)[C@H](COP(=O)(O)O)NC(=O)[C@@H]1CCCN1C(=O)[C@@H]1CCCN1C(=O)[C@@H](NC(=O)[C@H](CCCNC(=N)N)NC(=O)CNC(=O)[C@H](CCCNC(=N)N)NC(=O)[C@H](C)N)[C@@H](C)OP(=O)(O)O)C(=O)NCC(=O)N1CCC[C@H]1C(=O)N[C@@H](CCC(N)=O)C(=O)N[C@@H](CC(=O)O)C(=O)N[C@@H](CCC(=O)O)C(=O)N[C@@H](COP(=O)(O)O)C(=O)N[C@@H](CS)C(=O)N[C@H](C(=O)N[C@H](C(=O)N[C@@H](C)C(=O)N[C@@H](COP(=O)(O)O)C(=O)N[C@@H](COP(=O)(O)O)C(=O)N[C@@H](COP(=O)(O)O)C(=O)N[C@@H](CC(C)C)C(=O)N[C@@H](C)C(=O)N[C@@H](CCCCN)C(=O)N[C@@H](CC(=O)O)C(=O)N[C@H](C(=O)N[C@@H](CO)C(=O)N[C@@H](CO)C(=O)O)[C@@H](C)O)[C@@H](C)O)[C@@H](C)OP(=O)(O)O` [V2Rpp-4]: 5.1 ± 0.7 µM and roughly 5 fold.
Taken in the same sequence, the figures for `CC(C)C[C@H](NC(=O)[C@H](COP(=O)(O)O)NC(=O)[C@@H]1CCCN1C(=O)[C@@H]1CCCN1C(=O)[C@@H](NC(=O)[C@H](CCCNC(=N)N)NC(=O)CNC(=O)[C@H](CCCNC(=N)N)NC(=O)[C@H](C)N)[C@@H](C)O)C(=O)NCC(=O)N1CCC[C@H]1C(=O)N[C@@H](CCC(N)=O)C(=O)N[C@@H](CC(=O)O)C(=O)N[C@@H](CCC(=O)O)C(=O)N[C@@H](COP(=O)(O)O)C(=O)N[C@@H](CS)C(=O)N[C@H](C(=O)N[C@H](C(=O)N[C@@H](C)C(=O)N[C@@H](COP(=O)(O)O)C(=O)N[C@@H](COP(=O)(O)O)C(=O)N[C@@H](COP(=O)(O)O)C(=O)N[C@@H](CC(C)C)C(=O)N[C@@H](C)C(=O)N[C@@H](CCCCN)C(=O)N[C@@H](CC(=O)O)C(=O)N[C@H](C(=O)N[C@@H](CO)C(=O)N[C@@H](CO)C(=O)O)[C@@H](C)O)[C@@H](C)OP(=O)(O)O)[C@@H](C)OP(=O)(O)O` [V2Rpp-1] were 3.3 ± 0.6 µM and “approximately 3 fold”.
